In US6545041B2, “Tumor necrosis factor alpha (TNF-α) inhibiting pharmaceuticals” (Yessum Research Development Co. of the Hebrew University of …, priority 1995, dated 2003):
Where “and” joins values, the source holds several entries; their conditions need not be identical. Equal values may be shown once. Entries after “also recorded” stand apart in the source; their conditions may differ.

Legend:
[1] = cited from earlier work
LPS treated rats = test: LPS-induced hypotension and hematocrit in rats; format: in vivo, Sprague Dawley rats
Method: A prominent manifestation of endotoxemia is hypotension, and the effect of a drug on mean arterial blood pressure (MABP) indicates its potency as an anti-endotoxic shock agent. The protective effect of a test compound is evaluated in rats treated with LPS, in which the blood pressure and other vital signs are monitored up to 4 hrs after induction of endotoxemia.
Rats were individually anesthetized with halothane in 70% nitrogen, 30% oxygen. The right femoral artery was catheterized using polyethylene tubes (PE-50, Clay Adams, USA), and connected to a computerized physiograph through a pressure transducer (XTT Vigo, USA). The animals are then connected via a rectal probe to the above physiological recorder. Rectal temperature is kept throughout the study between 37° C. and 38° C., using a heating lamp. Following 10-15 minutes of baseline recording, animals are intravenously administered an injection of saline, vehicle alone or HU-211 at a dose of 4 mg/kg. As soon as possible after completion of the first injection (2-5 minutes later) they are administered an intravenous injection of LPS at a dose of 15 mg/kg (in a volume of 3 ml/kg). Blood pressure and heart rate are recorded for the following 4 hrs. The hematocrit is measured and recorded just prior to drug administration, and 1, 2, and 3 hours later. At the end of the follow up period, animals are sacrificed by deep anesthesia with halothane.

TNF [2] = details: rats, 48 hours after HT; cited from earlier work
[3] = Passage of the blood-brain barrier
Source text: (§1) This makes the development of formulations suitable for intravenous administration of HU-211 difficult, hampering its clinical application. Water-soluble derivatives of HU-211 designed to readily release the drug by hydrolysis following i.v. administration might overcome this problem and will be used as prodrugs.

EAE = test: Experimental autoimmune encephalomyelitis (EAE) in Lewis rats; format: in vivo; details: single iv injection day 10 to 18 post induction, FIG. 6
Source text: Autoimmune diseases are associated with elevated levels of TNF. The models which are most conveniently studied are experimental allergic encephalomyelitis (EAE) and experimental autoimmune arthritis in rodents. EAE is an autoimmune neurological disease elicited by sensitization of the animals to myelin basic protein from the central nervous system, which is also known as basic encephalitogenic protein. EAE is considered by many to represent a model of the human disease multiple sclerosis. Experimental autoimmune arthritis is induced in animals by immunization with collagen in complete Freund's adjuvant. The ability of compounds of the general formula I to prevent or attenuate the clinical symptoms of these autoimmune diseases was tested.
The Lewis rats used were 8 week old females (from OLAC, England). The animals (5 per cage) were maintained on a 12 hour light/12 hour dark regimen, at a constant temperature of 22° C., with food and water ad libitum. EAE was induced in these animals by immunization with purified guinea pig myelin basic protein emulsified in complete Freund's adjuvant. Guinea pig myelin basic protein (mbp) was prepared from spinal cord homogenates defatted with chloroform/ethanol and the isolated protein was purified using ion exchange chromatography. Each animal received 50 micrograms of the purified protein. […]

[4] = doses far exceeding those contemplated for repression of cytokines; cited from earlier work
[5] = tested on: collagen induced arthritis; test: Collagen type 2 induced arthritis; format: in vivo, CD-1 male mice; details: HU-211 20 mg/kg i.p. daily or every 3 days; p<0.01
Method: CD-1 male mice (27-33 gr.), five in each treatment group (supplied by Harlan Israel) were used in the present study. Each animal was administered with collagen type 2 (Sigma, batch no. 111H7180) 100 μg/ml in 0.1 ml complete Freund's adjuvant (Sigma batch no. 084H8800). The collagen was administered s.c. into the base of the tail. The volume of each hind paw was measured using a plathysmometer (Hugo Basill, Italy) before collagen administration and on days 1, 4, 7, 10, 13 and 16 of treatment (30 minutes after drug treatment).
Five treatment groups were tested in the present study: vehicle (blank cosolvent) 10 ml/kg once daily, HU-211 10 mg/kg every three days, HU-211 20 mg/kg once daily, HU-211 20 mg/kg every 3 days and diclofenac 10 mg/kg (10 ml/kg) every 3 days. All treatments were administered intraperitoneally. HU-211 was used from a 5% preparation in cosolvent (Pharmos batch no. PRN-C-08623041), by diluting with saline (B. Braun batch no. 3431A41A) 1:25. The same procedure was performed with blank cosolvent (Pharmos batch no. 608945). Diclofenac was prepared in Pharmos, batch no. LG-121\70 1 mg/ml. At the same time paws were measured they were clinically evaluated according to the following method (Williams R. O., Proc. Natl. Acad. Sci. USA: 89:9784-9788): 0—normal, 1—slight swelling and erythema, 2—pronounced edematous swelling and 3—joint rigidity. […]

[6] = Phase I clinical trials, intravenous, healthy human volunteers; format: in vivo; details: dose ranges contemplated for humans
[7] = tested on: D-galactosamine (D-GALN)-sensitized mice; test: Lethal toxicity by LPS in D-galactosamine-sensitized mice (endotoxic shock); format: in vivo, mice (C57BL/6); details: for lethality in HU-211 treated group dead/total: LPS 10 ng/mouse + D-GALN, HU-211 7.5 mg/kg plus 8 hourly injections, 24 hrs, exp. no 1-3 and total, controls 20/20, 7.5 mg/kg
Method: The effect of HU-211 in endotoxic shock was assessed in a model of lethal toxicity by lipopolysacharide (LPS) in D-galactosamine (D-GALN)-sensitized mice (Galanos et al. PNAS 76: 5739, 1979, Lehman et al. J. Exp. Med. 165: 657, 1987). In this model 100% mortality occurs within 6-8 hrs of administration of the combined treatment.
LPS (10 ng/mouse) and D-GALN ([…]) were coadministered to 20 mice (C57BL/6). Half of the mice served as controls, and the other were treated within 5 min of injection with HU-211 (7.5 mg/kg body weight), followed by 8 additional injections every hour. The survival was followed up to 24 hrs, and the results of this experiment are depicted in Table 1.

[8] = Solubility in water / aqueous solutions; format: physicochemical
Source text: Among the novel compounds tested, monoesters including nicotinate, succinate and maleate are preferred. Most preferred compounds include the glycinate ester and N-substituted glycinate ester salts, such as the trimethyl- and triethylammonium acetate derivatives of HU-211. These novel compounds have the added advantage of being soluble in some aqueous solutions, whereas the parent compounds are extremely hydrophobic.
as §1

TNF [9] = test: Serum TNF activity (bioassay) and levels (ELISA) in LPS treated mice; format: in vivo, mice (C57BL/6); details: 100 μg LPS ip with 200 μg/mouse compound, 90 min
Method: An early response to LPS administration is the elevation of serum levels of TNF, which peaks at 1.5-2 hr after LPS administration. Mice treated with LPS serve as a model for the effect of drugs on reducing TNF levels under these conditions.
Serum levels of TNF peak within 1.5 hr following LPS administration, and at this time point, we assessed both TNF activity and levels in the serum.
Mice (C57BL/6) were injected ip with 100 μg LPS, concomitantly with HU-211, HU-210, or HU-245 (200 μg/mouse), and 90 min later they were bled, the sera separated and TNF was assayed for its activity (bioassay) and levels (using ELISA kit).

LPS treated mice = test: Survival of LPS treated mice; format: in vivo, BALB/c male mice; details: for survival rate / mortality: 24 hours
Method: The effect of HU-211 on the survival of mice, in response to administration of LPS was assessed. The survival was followed up to 48 hr.
Animals are administered with either HU-211 at a dose of 10 mg/kg i.p. or vehicle alone (10 ml/kg i.p.), and 30 minutes later with LPS IV. Two dose levels of LPS were tested in the present study: 10 and 15 mg/kg.
Mortality rate was recorded once a day for 2 days.

TNF [10] = test: Closed head injury (head trauma) model in rats: TNF, edema, clinical outcome; format: in vivo, rat; details: FIG. 4
Source text: Closed head injury is associated with high mortality and morbidity. It induces edema formation, blood-brain-barrier (BBB) disruption, neuronal cell death and impairment of motor and cognitive functions. Animals subjected to head trauma in a controlled fashion serve as models in which to test drugs of therapeutic potential. Test compounds can be evaluated both for improved clinical outcome and for reduction of edema induced by closed head injury. The ability of compounds to reduce the severity of neurological symptoms and to reduce brain edema is considered a measure of their potency in reducing brain damage.
The effect of HU-211 on TNF production was assessed in a model of head trauma (HT) in rats. Injury was induced in anesthetized rats by a weight-drop device followed by a recovery period of up to 30 days. This type of trauma produces brain edema (i.e. increase in water content, decrease in specific gravity in the brain), breakdown of the blood brain barrier (BBB), clinical and cognitive dysfunction. […]
In this experiment we compared the effects of two agents: 1) pentoxyfilline (PTX), a methylxanthine known for its ability to prevent or attenuate the LPS-induced release of TNF both in vitro and in vivo. […] The levels of TNF were measured after CHI in order to determine whether the beneficial effect of HU-211 is also associated with suppression of TNF production or activity.

Compound: CCCCCCC(C)(C)c1cc(O)c2c(c1)OC(C)(C)C1CC=C(CO)CC21 (stereo not shown) [HU-210, 7-hydroxy-Δ^6-tetrahydrocannabinol 1,1-dimethylheptyl homologue, reference compound]
- cannabimimetic activity relative to Δ-1-tetrahydrocannabinol ([1]; in vivo): ~100 times

Compound: CCCCCCC(C)(C)c1cc(O)c2c(c1)OC(C)(C)[C@H]1CC=C(CO)C[C@H]21 [HU-211, (+)-(3S,4S)-1,1-dimethylheptyl homologue of 7-hydroxy-Δ^6-tetrahydrocannabinol]
- time post-LPS at which normotension was regained (LPS treated rats; HU-211 treated rats): ≤ 30 min
- duration of transient hypotension (LPS treated rats; HU-211 treated rats, evident 10 minutes after LPS): 5 to 10 min
- LPS-induced increase in hematocrit (LPS treated rats; rats, HU-211 iv 2-3 minutes before LPS, LPS alone about 10% increase): prevented
- LPS-induced drop in mean arterial blood pressure (MABP) (LPS treated rats; rats, LPS 15 mg/kg iv, HU-211 4 mg/kg iv pre-administration, LPS alone around 30% reduction): abolished
- edema and clinical outcome after head trauma (TNF [2]): reduced edema and improved the clinical outcome
- passage of the blood-brain barrier [3]: readily passes the blood-brain barrier
- mean clinical score (EAE): diminution of mean clinical score
- cannabimimetic activity ([1]; doses several thousand times higher than the ED50 of HU-210): inactive as a cannabimimetic
- stereotypy and locomotor hyperactivity [4]: induction of stereotypy and locomotor hyperactivity
- clinical signs of arthritis (swelling of the paws) [5]: lowest number of these signs
- toxicity or psychoactivity [6]: no evidence of toxicity or psychoactivity
- lethality in HU-211 treated group dead/total [7]: 1/5 and 1/10 and 0/5
- lethality in HU-211 treated group dead/total ([7]; pooled total of all experiments): 2/20
- survival ([7]; LPS + D-GALN mice, HU-211 7.5 mg/kg, total of experiments, controls 0%): 90%
- solubility in water / aqueous solutions [8]: very poor solubility in water
- TNF levels in serum (ELISA) (TNF [9]): significantly reduced; also recorded: attenuated the LPS-induced production and action of TNF to a very pronounced extent
- TNF activity (S50) in serum, bioassay (TNF [9]; LPS control 1233±237): significantly reduced; also recorded: attenuated the LPS-induced production and action of TNF to a very pronounced extent
- survival rate (LPS treated mice; LPS 10 mg/kg iv, HU-211 10 mg/kg i.p., vehicle 43%): 91%
- mortality (LPS treated mice; LPS 10 mg/kg iv, HU-211 10 mg/kg i.p., vehicle 57%): 9%
- survival (LPS treated mice; LPS 10 mg/kg iv, HU-211 10 mg/kg i.p., 48 hours, vehicle none survived): 33%
- survival (LPS treated mice; LPS 10 mg/kg iv, HU-211 10 mg/kg i.p., 72 hours post LPS): None of the animals survived
- mortality (LPS treated mice; LPS 15 mg/kg iv, HU-211 10 mg/kg i.p. 30 min before, vehicle 67%): 33%
- survival rate (LPS treated mice; LPS 15 mg/kg iv, HU-211 10 mg/kg i.p., vehicle 33%): 67%
- survival (LPS treated mice; LPS 15 mg/kg iv, HU-211 10 mg/kg i.p., 48 hours): none of the animals survived
- brain levels of TNF after CHI, compared with pentoxyfilline (TNF [10]): significantly superior to that of pentoxyfilline
- brain tissue water content (anti-edema effect) after CHI, compared with pentoxyfilline (TNF [10]): significantly superior to that of pentoxyfilline

Compound: CCCCCCC(C)(C)c1cc(O)c2c(c1)OC(C)(C)C1CC=C(C(=O)O)CC21 (stereo not shown) [HU-245]
- TNF levels in serum (ELISA) (TNF [9]): significantly reduced
